Columns and labels:
[1] = molecular target: T1, BCAT2 (Homo sapiens, UniProt O15382); assay: BCAT2 enzyme inhibition (human); type: biochemical
T1 sequence (O15382 28-392): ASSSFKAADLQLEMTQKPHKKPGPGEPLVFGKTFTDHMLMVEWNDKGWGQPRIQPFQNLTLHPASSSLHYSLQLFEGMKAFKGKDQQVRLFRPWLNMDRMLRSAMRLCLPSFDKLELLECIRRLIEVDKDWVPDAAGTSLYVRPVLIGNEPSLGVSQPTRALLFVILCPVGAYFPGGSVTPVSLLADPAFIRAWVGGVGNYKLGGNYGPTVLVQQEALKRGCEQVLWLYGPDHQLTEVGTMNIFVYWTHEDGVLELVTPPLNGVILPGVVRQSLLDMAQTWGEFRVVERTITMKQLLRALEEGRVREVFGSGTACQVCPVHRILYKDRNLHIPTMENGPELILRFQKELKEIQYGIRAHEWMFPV
Procedure: In further embodiments, the functional modulation of BCAT2 is assayed using a cell-free assay. In various embodiments, the cell-free assay is an enzyme-coupled fluorescent assay. For example, the disclosure contemplates use of an assay that monitors the production of L-glutamate from branch-chain amino acids and α-ketoglutarate through the coupling of hBCATm activity to two additional enzymes, L-Glutamate Oxidase (L-GOx) and Horseradish Peroxidase (HRP). Specifically, L-GOx catabolizes L-glutamate to generate α-ketoglutarate and […], the latter being utilized by HRP and leading to the formation of fluorescent resorufin from the redox-sensitive dye Amplex Red. In some embodiments, the test compound is classified as a candidate compound if a decrease in L-glutamate is measured. In further embodiments, the test compound is classified as a candidate compound if a decrease in α-ketoglutarate is measured.

[2] = test system: GM00371 cells; assay: Viability assay (Cell titer glo) in the 3-HIB assay; type: cell-based, human; details: Homo sapiens, 24 h, read-out: 3HIB INHIBITION IC50 (μM) MEAN GM00371 cells Viablility Assay
Procedure: Cell Plating: Cells (Coriell Institute GM00371 cells) were plated (96-well clear bottom sterile plate; Greiner 655098) at 10,000 cells/0.1 mL in Eagle's minimum essential medium (EMEM)/15% FBS (Gibco 16000-044) with a Combi dispenser in a cell culture hood and incubated at 37° C. and 5% CO2 overnight.
Compound Dilution: Compound were prepared as 33.3× intermediate dilution in DMSO in 96 well round polystyrene plates. For 30 μM final maximum start with 30 μL of 10 mM in DMSO. 10-12 1:3 serial dilutions were prepared from left to right (20 μL+40 μL DMSO). A 10× secondary dilution was prepare in EMEM by taking 7.5 μL 33.3× and transfer to replicate 96 well round polystyrene plates and then adding 242.5 μL EMEM A 1× final dilution in EMEM was prepared by taking 50 μL 10× dilution and transferring to replicate 96 well polypropylene assay block (Costar 3956) and adding 450 μL EMEM A control was prepared for maximal compound inhibition by taking 20 μL 10 mM Reference Compound A and adding 40 μL DMSO for a concentration of 3.3 mM To 7.5 μL of the 3.3 mM Reference Compound A solution and added 242.5 μL EMEM to make a 100 μM solution. The subsequent Reference Compound A solution was diluted with EMEM to achieve a final concentration of 10 μM. The structure of Reference Compound A is:
A control was prepared for maximal compound toxicity by taking 7.5 μL Reference Compound B and 242.5 μL EMEM to make […]. 50 μL of that 100 μM Reference Compound B solution was combined with 450 μL EMEM to achieve a concentration of 30 μM. The structure of Reference Compound B is
Compound Treatment: Media was aspirated from the cells and 100 μL of D-PBS (ThermoFisher 14190144) was added and then removed. 100 μL of diluted compound was added to the cells in the place and the cells were incubated at 37° C. and 5% CO2 for 24 hours.
Viability Assay: To the cells remaining in the plate 25 μL D-PBS and 25 μL Cell titer glo reagent (Promega G7572). The plate was placed on a shaker for 2 minutes, incubated at room temperature in the dark and then read on a Clariostar microplate reader.

[3] = molecular target: T2, BCAT1 (Homo sapiens, UniProt P54687); assay: BCAT1 enzyme inhibition (human), Glutamate Glo luminescence; type: biochemical
T2 sequence (P54687 1-386): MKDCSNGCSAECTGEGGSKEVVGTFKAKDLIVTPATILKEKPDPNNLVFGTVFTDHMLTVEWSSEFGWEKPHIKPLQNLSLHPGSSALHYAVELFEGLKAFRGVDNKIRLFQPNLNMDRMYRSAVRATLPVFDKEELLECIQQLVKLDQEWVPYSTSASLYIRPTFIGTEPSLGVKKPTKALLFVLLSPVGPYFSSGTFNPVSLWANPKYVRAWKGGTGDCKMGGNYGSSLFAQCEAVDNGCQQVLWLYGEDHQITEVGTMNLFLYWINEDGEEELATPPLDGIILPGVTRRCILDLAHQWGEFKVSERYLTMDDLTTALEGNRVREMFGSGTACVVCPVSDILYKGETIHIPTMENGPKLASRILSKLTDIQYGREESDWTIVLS
Procedure: The BCAT1 inhibitory activity of selected compounds of the present disclosure were also evaluated. Compounds were prepared as up to 10 mM stock solutions generally using DMSO as the vehicle. 10-point dose response curves were generated using the Echo-550 (Labcyte) acoustic dispenser. Compound source plates ([…]) were made by serially diluting compound stocks to create 1 mM, 0.1 mM, and 0.01 mM solutions in DMSO into Echo certified LDV plates. The Echo then serially spotted 100% DMSO stock solutions into source dose response plates to generate a semi-log fold dilution scheme. 100% DMSO was added to the spotted dose response plates to bring the final volume to 5 μL, creating a 333× stock plate. 120 nL of the dose response stock plate was then spotted into the assay plate. 10 μL of assay buffer (50 mM Tris with 0.05% TWEEN-20) was then added to the plates resulting in a 4× working concentration in the assay plate. Final assay test concentration range was 3 μM to 0.0001 μM with a final DMSO concentration of 0.3%.
BCAT1 enzyme stock was first diluted to a 4× working concentration of 0.24 μg/mL in assay buffer (final assay concentration is 0.06 ug/ml). 10 μL of the 4×BCAT1 solution was then added to the previously prepared assay plate containing test compound or controls, and incubated at room temperature, protected from light, for either 10 or 60 minutes. After the compound incubation period, 20 μL of assay buffer plus 2× substrate is added to all wells (Final assay concentration of substrates is 300 μM L-leucine and 250 μM alpha-ketoglutaric acid). Enzyme reaction was then incubated for 10 minutes at room temperature. After the 10 minute incubation, the enzymatic reaction was halted with the addition of 5 μL of 0.6N HCl and incubated for 1 min. 5 μL of 1M Tris (pH 8.0) was then added to neutralize pH. 12.5 μL of the quenched assay volume was then transferred to a white, 384 well plate and 12.5 μL of Glutamate detection reagent was added (detection reagent prepared per Promega Glutamate Glo kit instructions). Plates were then incubated for 30 minutes at room temperature, protected from light. After glutamate detection incubation period, luminescence was read on BMG Novostar and relative light units was measured and exported for analysis.
Compound modulation of BCAT1 enzymatic activity was determined as follows. IC50 values were calculated in ActivityBase, using a 4-parameter fit equation. Data was normalized to maximum inhibition form the reference agent VS558CSA (at 10 μM). Relative light units were exported for analysis and % inhibition values for each well were calculated using the following formula: […]

SMILES | IC50 [1] [nM] | IC50 [3] [nM] | IC50 [2] [µM]
CC(=O)c1ccc2c(c1)nc(-c1ccccn1)n2[C@H]1CCC[C@@H](NC(=O)c2ccc(Br)s2)C1 [Compound 196] | < 100 | ≥ 1000 | ≥ 1
CNC(=O)c1ccc2c(c1)nc(-c1ncccc1F)n2[C@H]1CCC[C@@H](NC(=O)c2ccc(C#N)s2)C1 [Compound 198] | < 100 | 100 to 500 | ≥ 1
CNC(=O)c1ccc2c(c1)nc(-c1ccccc1[N+](=O)[O-])n2C1CCCC(NC(=O)c2ccc(C#N)s2)C1 (stereo not drawn) [Compound 200] | < 100 | 100 to 500 | ≥ 1
CNC(=O)c1ccc2c(c1)nc(-c1ccccc1C(F)F)n2C1CCC[C@@H](NC(=O)c2ccc(C#N)s2)C1 (stereo partly drawn) [Compound 221] | < 100 | 100 to 500 | ≥ 1
CNC(=O)c1cc2nc(-c3ccccn3)n([C@H]3CCC[C@@H](NC(=O)c4ccc(Cl)s4)C3)c2cc1Cl [Compound 235] | 500 to 1000 | ≥ 1000 | 
CNC(=O)c1ccc2c(c1)nc(-c1ccccn1)n2[C@H]1CCC[C@@H](NC(=O)c2sc(Br)cc2F)C1 [Compound 241] | < 100 | ≥ 1000 | 
CNC(=O)c1ccc2c(c1)nc(-c1ccccn1)n2[C@H]1CCC[C@@H](NC(=O)c2sc(Cl)cc2Cl)C1 [Compound 242] | > 1000 | ≥ 1000 | 
CNC(=O)c1ccc2c(c1)nc(-c1ccccn1)n2[C@H]1CCC[C@@H](NC(=O)c2sc(Cl)cc2OC)C1 [Compound 243] | 100 to 500 | ≥ 1000 | 
O=C(N[C@@H]1CCC[C@H](n2c(-c3ccccn3)nc3cccnc32)C1)c1ccc(Br)s1 [Compound 280] | 100 to 500 | ≥ 1000 | 
CNC(=O)c1cc2nc(-c3ncccc3F)n([C@H]3CCC[C@@H](NC(=O)c4ccc(Cl)s4)C3)c2cn1 [Compound 286, 3-((1S,3R)-3-(5-chlorothiophene-2-carboxamido)cyclohexyl)-2-(3-fluoropyridin-2-yl)-N-methyl-3H-imidazo[4,5-c]pyridine-6-carboxamide] | < 100 | < 100 | 
O=C(N[C@@H]1CCC[C@H](n2c(-c3ccccn3)nc3cnc(F)cc32)C1)c1ccc(Cl)s1 [Compound 288] | 100 to 500 | ≥ 1000 | 
O=C(N[C@@H]1CCC[C@H](n2c(-c3ccccn3)nc3ccncc32)C1)c1ccc(Br)s1 [Compound 294] | 100 to 500 | ≥ 1000 | 
O=C(N[C@@H]1CCC[C@H](n2c(-c3ncccc3F)nc3ccncc32)C1)c1ccc(Br)s1 [Compound 298] | < 100 | 500 to 1000 | 
O=C(N[C@@H]1CCC[C@H](n2c(-c3ccccn3)nc3cnc(F)cc32)C1)c1ccc(Br)s1 [Compound 302] | < 100 | 500 to 1000 | 
CNC(=O)c1ccn2c(C3CCCC(NC(=O)c4ccc(Br)s4)C3)c(-c3ccccc3)nc2c1 (stereo not drawn) [Compound 303] | 100 to 500 | ≥ 1000 | 
N#Cc1cc2nc(-c3ccccc3C#N)n(C3CCCC(NC(=O)c4ccc(Br)s4)C3)c2cn1 (stereo not drawn) [Compound 306] | < 100 | ≥ 1000 | 

The next lines start with results.

IC50 [1] [nM] | IC50 [3] [nM] | SMILES | IC50 [2] [µM]
< 100 | ≥ 1000 | CNC(=O)c1ccc2c(c1)nc(-c1ccccc1C(N)=O)n2[C@H]1CCC[C@@H](NC(=O)c2ccc(Br)s2)C1 [Compound 143] | ≥ 1
< 100 | 500 to 1000 | CNC(=O)c1ccc2c(c1)nc(-c1ccccc1OC(F)(F)F)n2[C@H]1CCC[C@@H](NC(=O)c2ccc(Br)s2)C1 [Compound 166] | 0.1 to 0.5
< 100 | ≥ 1000 | CNC(=O)c1ccc2c(c1)nc(-c1sccc1C)n2[C@H]1CCC[C@@H](NC(=O)c2ccc(Br)s2)C1 [Compound 169] | ≥ 1
< 100 | 100 to 500 | CNC(=O)c1cc2nc(-c3ccccc3C)n([C@H]3CCC[C@@H](NC(=O)c4ccc(Cl)s4)C3)c2cc1F [Compound 205] | ≥ 1
< 100 | < 100 | CNC(=O)c1cc2nc(-c3ccccc3F)n([C@H]3CCC[C@@H](NC(=O)c4ccc(Cl)s4)C3)c2cc1F [Compound 206] | 0.1 to 0.5
< 100 | ≥ 1000 | CNC(=O)c1cc2nc(-c3c(F)ccc(F)c3O)n([C@H]3CCC[C@@H](NC(=O)c4ccc(C#N)s4)C3)c2cc1F [Compound 232] | 
< 100 | 500 to 1000 | CNC(=O)c1cc2nc(-c3c(F)ccc(F)c3O)n([C@H]3CCC[C@@H](NC(=O)c4ccc(Br)s4)C3)c2cc1F [Compound 233] | 
100 to 500 | ≥ 1000 | CNC(=O)c1cc2nc(-c3ncccc3F)n([C@H]3CCC[C@@H](NC(=O)c4ccc(Cl)s4)C3)c2cc1Cl [Compound 236] | 
100 to 500 | ≥ 1000 | CNC(=O)c1cc2nc(-c3ncccc3F)n([C@H]3CCC[C@@H](NC(=O)c4ccc(Br)s4)C3)c2cc1Cl [Compound 237] | 
100 to 500 | ≥ 1000 | CNC(=O)c1cc2nc(-c3ccccn3)n([C@H]3CCC[C@@H](NC(=O)c4ccc(Br)s4)C3)c2cc1Cl [Compound 238] | 
< 100 | 500 to 1000 | CNC(=O)c1cc2nc(-c3ccccn3)n([C@H]3CCC[C@@H](NC(=O)c4ccc(Cl)s4)C3)c2cc1O [Compound 240] | 

From patent publication US20220274967A1, “BCAT MODULATION” (Icagen, LLC, priority 2019, published 2022)
